Experimental data: patent publication US20060074048A1, “Mixed esters of hyaluronic acid with retinoic and butyric acids” (priority 2002, published 2006)

What was measured:
Assay type in all cases: cell-based, human
[1] = system: promyelo/monocytic cell line U937; experiment: Cell cycle perturbation by flow cytometry, U937; details: U937, 3 days; mixed ester 0.1 mg/ml, BA 0.2 mM, RA 10^−5 M
Procedure: The evaluation was performed by flow cytometry (panels a, b, c) after 6 days of continuous treatment with mixed ester at 0.1 or 1 mg/ml concentrations and was compared with the effect on cell growth determined by a colorimetric method (MTT), described by the curve -●-.
The effect on cell cycle and on cell proliferation has been assessed. The assessment has been performed by flow cytometry after 3 days of treatment with the mixed ester of the invention at 0.1 mg/ml concentration, or with butyric acid or retinoic acid at concentrations of 0.2 mM and 10^−5 M, respectively. Cell cycle perturbations induced by these compounds are related to the effect on cell proliferation (ordinate axis) exerted by identical concentrations of the drugs and expressed as percentage of the control (CTR) represented by cells cultured in medium alone. […] CTR: control. Panel a): (Go=45%; S=46%), panel b): (Go=44%; S=45%); panel c) (Go=43%; S=45%); panel d): (Go=72%; S=22%); panel e) (Go=41%; S=46%), panel f): (Go=94%; S=2%).
To evaluate cell cycle alterations, cells were re-suspended in a solution containing only propidium iodide, Rnase and Nonidet P40 and the fluorescence was measured using a FACScan flow cytometer.

[2] = system: promyelo/monocytic cell line U937; experiment: MTT cell proliferation, U937; details: for growth inhibition by free active principle: stated in the U937/HL-60 context
Procedure: MCF7, U937, HL-60 and HT29 cell lines were purchased from the American […] Culture Collection (Rockville, […].). MCF7 cells were grown in DMEM/F12 supplemented with 5% FBS, while U937 and HL-60 were grown in RPMI-1640 supplemented with 10% (v/v) foetal bovine serum.
Approximately 1000 cells (MCF7 and HT29) and 500 cells (U937 and HL-60) per well were used in 96-well plates and were treated as indicated in the examples. At the end of the experiment, the anti-proliferative effect was measured with 3-(4,5-dimethylthiazol-2-yl)-2,5-diphenyltetrazolium bromide (MTT). The blank value, corresponding to wells containing all the components but cells, was subtracted from the absorbance values obtained.

U937 cells = experiment: Expression of membrane antigens by flow cytometry (FACS), U937; details: U937, 3 days; mixed ester 0.1 mg/ml, butyric acid 0.2 mM, retinoic acid 10^−5M
Procedure: Expression of CD44, CD11a, CD11b, CD18 antigens was measured with specific murine monoclonal antibodies and secondary anti-mouse antibodies conjugated to FITC. After immunofluorescence, cells were incubated in a solution containing propidium iodide (PI) (5 mg/ml), Rnase (10 kU/ml), and Nonidet P40 (0.005%). The fluorescence relative to PI was measured using a FACScan flow cytometer (Becton Dickinson) equipped with an argon laser at 488 nm excitation wavelength and a 610 nm filter. The fluorescence signal was collected in linear and logaritmic modes. Data were evaluated using the LYSIS II software.
To check whether the block of cell growth was accompanied by activation of differentiation, the selected experimental model consists of the U937 promyelo/monocytic cell line, in which the effect of mixed esters on a series of myelocyte/macrophage specific differentiation markers (CD11a, CD11b and CD18) has been studied. The resulting effect has been directly compared with that of the two active principles. […] The results have been compared with those obtained with butyric and retinoic acids at the same concentrations as in the mixed ester (respectively 0.2 mM and […]). Since the time of treatment was reduced to 3 days in these experiments, the effects on growth and cell cycle were also measured.
In table 2 are indicated the percentages of expression measured by FACS of some membrane antigens in U937 cells treated with the esters of the invention and with the two non-esterified active principles. For each treatment the control has been repeated and is then indicated by the respective superscript.
The evaluation was performed by flow cytometry after that the promyelo/monocytic U937 cell line was treated for 3 days with mixed ester at 0.1 mg/ml concentration, butyric acid at 0.2 mM concentration or retinoic acid at 10^−5M concentration. Human lymphocytes were used as negative control for the expression of the antigen under examination.

For `CCCC(=O)O` [butyric acid, Butyric Acid], the “cells blocked in G0/1 (Go) phase” value [1] was 44%, the “cells in S phase” value [1] was 45% and the “growth inhibition by free active principle” value ([2]; BA 2 mM) was roughly 100%. The “anti-proliferative effect and cell cycle block” value ([2]; U937, 3 days, BA 0.2 mM, RA 10^−5 M) was “totally ineffective”, the CD11a expression (U937 cells) was 76% and the CD11b expression (U937 cells) was 17%. It also gave a CD18 expression (U937 cells) of 82% and a CD44 expression (U937 cells) of 91%.

`CC1=C(/C=C/C(C)=C/C=C/C(C)=C/C(=O)O)C(C)(C)CCC1` [retinoic acid, Retinoic acid] was tested, and the “cells blocked in G0/1 (Go) phase” value [1] was 94%, the “cells in S phase” value [1] was 2% and the “growth inhibition by free active principle” value ([2]; RA 10^−4 M) was roughly 100%. For the same compound, the CD11a expression (U937 cells) was 91%, the CD11b expression (U937 cells) was 28% and the CD18 expression (U937 cells) was 83%. The CD44 expression (U937 cells) was 97%.
